According to patent US8563731B2, “Mesylate salt of 5-(2-{[6-(2,2-difluoro-2-phenylethoxy)hexyl]jamino}-1-hydroxyethyl)-8-hydroxyquinolin-2(1H)-one as agonist of the β2 adrenergic receptor” (Almirall, S.A., priority 2008, dated 2013):
Structures can show the parent of a compound that is named as a salt.

Test: Stability Test under accelerated condition (solid in amber glass vials, impurities by HPLC)
Type: physicochemical
Procedure: Stability of the mesylate salt of the present invention was evaluated under accelerated condition. About 5 mg of the mesylate salt of the present invention were introduced in individual 10 ml amber glass vials. These vials were stored at 40° C. during 30 days and at 80° C. during 15 and 30 days, respectively. After the forced stress conditions, samples were dissolved in 5 ml of the appropriate solvent. Impurities increase was determined using HPLC analysis and by calculating the relative areas.

O=c1ccc2c([C@@H](O)CNCCCCCCOCC(F)(F)c3ccccc3)ccc(O)c2[nH]1 [5-(2-{[6-(2,2-difluoro-2-phenylethoxy)hexyl]amino}-1(R)-hydroxy-ethyl)-8-hydroxyquinolin-2(1H)-one mesylate]
HPLC Impurities (% area) (Stability @ 40° C. 30 days): 2.4% | HPLC Impurities (% area) (Stability @ 80° C. 15 days): 3.10% | HPLC Impurities (% area) (Stability @ 80° C. 30 days): 3.8% | percentage of impurities observed (all forced conditions (40° C. 30 days, 80° C. 15 and 30 days)): less than 5%
